# Assays:
# Assay in all cases: Cell growth inhibition assay (alamar blue)
# Assay type in all cases: cell-based
# [1] = system: human colorectal HT-29 tumor cell line; conditions: HT29, 20 μM, 72 h
# Procedure: (§1) The compounds were screened in a growth inhibition assay at 20 μM over a 72 h period in a panel of cancer cell lines (lung-A549; pancreatic-Aspc1; colon-HT29; breast-MDAMB231; prostate-PC3; ovarian-SKOV3 and bone-U2OS) and the results are summarized in Table 2. […] This size effect was also observed with the urea compounds from the secondary amine (6j vs. 6l and 6k vs. 6m).
# (§2) Cell Growth Inhibition Assay. Human lung A549, human pancreatic AsPC1, human colorectal HT-29, human breast MDA-MB-231, human prostate PC3, human ovarian SKOV3, and human osteosarcoma U2OS tumor cell lines were cultured in basal media containing 10% FBS and maintained in a 37° C. incubator with 5% CO2. All compounds were screened in 96 well microtiter plate format. In general, each cell line was plated at optimal assay density in 95 μl of propagation media in 96 well plates and incubated overnight. The next day, a standard alamar blue assay was performed (see below) on representative wells of each cell line for a Tz calculation. Subsequently, cells were treated in duplicate with a 5 μl volume of either vehicle only, positive controls etoposide and taxol, or test compounds at 20 μM (highest soluble compound concentration). The treated cells were incubated for 72 h and then assayed for growth by alamar blue assay. Briefly, 10 μl of reagent was added to each well and the plates returned to 37° C. After 3 h, fluorescence at 544ex/590em was measured using a SpectraMax M5 (Molecular Devices) plate reader. Growth is represented as a percentage of the control cells that were treated with vehicle only and % growth inhibition was determined using the NCI algorithm: Tz=number of untreated cells at zero time, C=Number of control cells at 72 h time, and T=number of compound treated cells at 72 h time; 100*([T−Tz]/[C−Tz]).
# [2] = system: human breast MDA-MB-231 tumor cell line; conditions: MDA-MB-231, 20 μM, 72 h
# Procedure: as §1, §2
# [3] = system: human osteosarcoma U2OS tumor cell line; conditions: 72 h
# Procedure: as §1, §2
# [4] = system: human prostate PC3 tumor cell line; conditions: PC3, 20 μM, 72 h
# Procedure: as §1, §2
# [5] = system: human ovarian SKOV3 tumor cell line; conditions: SKOV3, 20 μM, 72 h
# Procedure: as §1, §2
# [6] = system: human pancreatic AsPC1 tumor cell line; conditions: AsPC1, 20 μM, 72 h
# Procedure: as §1, §2
# [7] = system: human lung A549 tumor cell line; conditions: A549, 20 μM, 72 h
# Procedure: as §1, §2
Structure (SMILES),% Growth inhibition at 20 μM [1],% Growth inhibition at 20 μM [2],% Growth inhibition at 20 μM [3],% Growth inhibition at 20 μM [4],% Growth inhibition at 20 μM [5],% Growth inhibition at 20 μM [6],% Growth inhibition at 20 μM [7]
S=C(Nc1ccccc1)Nc1ccc2nc(-c3ccccc3)c(-c3ccccc3)nc2c1 [6c],Inactive,Inactive,Inactive,Inactive,Inactive,Inactive,Inactive
Cc1nc2ccc(NC(=O)Nc3ccccc3)cc2nc1C [5e],Inactive,Inactive,Inactive,Inactive,Inactive,Inactive,Inactive
O=C(Nc1ccccc1)Nc1ccc2nc(-c3cccs3)c(-c3cccs3)nc2c1 [5g],Inactive,Inactive,Inactive,Inactive,Inactive,Inactive,Inactive
Cc1nc2ccc(NC(=O)N3CCCC3)cc2nc1C [6g],Inactive,Inactive,Inactive,Inactive,Inactive,Inactive,Inactive
O=C(Nc1ccc2nc(-c3ccccc3)c(-c3ccccc3)nc2c1)N1CCCC1 [6i],Inactive,16.7 ± 3.9%,54.2 ± 2.2%,56.9 ± 2.7%,18.5 ± 4.3%,29.4 ± 9.8%,11.0 ± 1.3%
Cc1ccc(S(=O)(=O)N(c2ccc3nc(-c4cccs4)c(-c4cccs4)nc3c2)S(=O)(=O)c2ccc(C)cc2)cc1 [5k],Inactive,Inactive,Inactive,Inactive,Inactive,Inactive,Inactive
O=[N+]([O-])c1ccc(NC(=S)Nc2ccc3nc(-c4cccs4)c(-c4cccs4)nc3c2)cc1 [6e],23.9 ± 27.8%,53.3 ± 7.2%,50.6 ± 3.9%,19.5 ± 37.4%,Inactive,Inactive,Inactive
O=C(Nc1ccccc1)Nc1ccc2nc(-c3ccccc3)c(-c3ccccc3)nc2c1 [5h],Inactive,Inactive,Inactive,Inactive,Inactive,Inactive,Inactive
Cc1nc2ccc(NC(=O)N3CCC(Cc4ccccc4)CC3)cc2nc1C [6j],16.3 ± 10.1%,12.4 ± 5.0%,33.5 ± 0.4%,30.6 ± 11.6%,8.9 ± 5.1%,Inactive,40.3 ± 1.9%
Cc1ccc(S(=O)(=O)Nc2ccc3nc(-c4ccccc4)c(-c4ccccc4)nc3c2)cc1 [5l],Inactive,Inactive,Inactive,Inactive,Inactive,Inactive,Inactive

# From patent publication US9353094B2, “Substituted quinoxalines as kinase inhibitors” (BOARD OF REGENTS OF THE UNIVERSITY OF NEBRASKA, priority 2010, dated 2016)
